From patent US8067189B2, “Methods for determining sensitivity to vascular endothelial growth factor receptor-2 modulators by measuring the level of collagen type IV” (Bristol-Myers Squibb Company, priority 2005, dated 2011)

Tests used:
[1] = test system: VEGFR-2 co-expressed biomarkers (mRNA levels in xenograft tumors); test: Gene expression profiling (Affymetrix mouse 430A arrays) of un-treated vs treated xenograft tumors; format: in vivo
Method: (§1) Tumors were propagated in nude mice as subcutaneous (sc) transplants using L2987 and HCT-116 cancer cell lines. Tumor passage occurred approximately every two to four weeks. Tumors were then allowed to grow to the pre-determined size window (100-200 mm^3, tumors outside the range were excluded) and animals were evenly distributed to various treatment and control groups. Animals were treated with the example VEGFR-2 inhibitor (100 mg/kg 1 qd×14 days). Treated animals were checked daily for treatment related toxicity/mortality. Each group of animals was weighed before the initiation of treatment (Wt1) and then again following the last treatment dose (Wt2). The difference in body weight (Wt2−Wt1) provided a measure of treatment-related toxicity. Tumor response was determined by measurement of tumors with a caliper twice a week, until the tumors reached a predetermined target size. Animals that were distributed to various treatment and control groups during the study were eventually sacrificed to obtain tumor and blood samples for genomic and protein analysis.
The colon tumor samples obtained from cancer patients were snap frozen in liquid nitrogen within 20 minutes of resection and stored thereafter at −80° C. The mouse xenograft tumor samples were split into two halves. One half was mixed in a vial of 10% formalin to be used for IHC and the other half was mixed in 1.0 ml of RNAlater™ RNA Stabilization Reagent (Ambion, Inc., Austin, Tex.) held at room temperature for 30 minutes then stored at −80° C. Total RNA was extracted from the tumor samples using the RNeasy Kit™ (Qiagen, Valencia Calif.). At least 1 μg total RNA with a 260/280 ratio ≧1.8 by spectrophotometry (DU640 UV, Beckman Coulter, Fullerton, Calif.) was required for transcriptional profiling. Briefly, the tumor samples were homogenized in a lysis-binding solution supplied by Qiagen. An equal volume of ethanol was mixed into each sample, the mixture was passed through the filter cartridges provided, and the rest of the extraction protocol was followed (Ambion). RNA yield and quality were assessed on a standard 1% agarose gel. A ratio 28 s/18 s RNA in the range of 1.5 to 2.5 indicated high quality RNA that is free of degradation. RNA samples were stored at −80° C.
Transcriptional profiling was performed on the RNA obtained from the tumor samples. The Affymetrix GeneChip system (Affymetrix, Santa Clara, Calif.) was used for hybridization and scanning of the human U133A and mouse 430A arrays. Data were preprocessed using the MAS 5.0 software. Generation of cRNA followed a standard T7 amplification protocol. Total RNA was reverse-transcribed with SuperScript II (Gibco, Carlsbad, Calif.) in the presence of T7-(dT)24 primer to generate first strand cDNA. A second-strand cDNA synthesis was performed in the presence of DNA Polymerase I, DNA ligase, and RNase H (Gibco). The resulting double-stranded cDNA was blunt-ended using T4 DNA polymerase. This double-stranded cDNA was then transcribed into cRNA in the presence of biotin-ribonucleotides using the BioArray High Yield RNA transcript labeling kit (Enzo Life Sciences, Farmingdale, N.Y.). The amplified, biotin-labeled cRNA was purified using Qiagen RNeasy columns (Qiagen Sciences), quantified and fragmented at 94° C. for 35 minutes in the presence of fragmentation buffer (1×). Fragmented cRNA was hybridized to the Affymetrix U113A and 430A arrays overnight at 42° C. The arrays were then placed in the fluidics stations for staining and washing as recommended by Affymetrix protocols. The chips were scanned and raw intensity values were generated for each probe on the arrays.
The 94 co-expressed VEGFR-2 genes identified from human cancers profiled on U133A arrays were used to identify their corresponding mouse homolog from mouse xenografts tumors profiled on mouse 430A arrays. […]

[2] = test system: Collagen type IV (COL4A1); test: Immunohistochemistry of xenograft tumors; format: in vivo, mouse; details: treated xenograft tumors relative to un-treated tumors
Method: as §1
(§2) Tissue specimens collected for IHC were fixed by using 10% formalin. After fixation, the chemical fixative was discarded and the specimens were submerged in 70% ethanol before being embedded in paraffin blocks. Five micron tissue sections were cut from each block and placed on positively charged microscope slides. The tissue slides were de-paraffined by immersing in xylene. The slides were re-hydrated in 100% ethanol, 95% ethanol, and 70% ethanol. After re-hydration, the slides were washed several times with deionized water at room temperature. Multiple antigen retrieval conditions (Citra, Citra Plus, and AR10) were tested by use of the BioGenex EZ-retriever microwave to determine the best conditions. Staining optimization was performed in an automated BioGenex i6000 IHC system for each of the candidate marker antibodies independently. Both treated and un-treated xenografts were stained in the same run to minimize slide to slide variations. […]

[3] = test system: angiotensin receptor-like 1 (AGTRL1); test: Immunohistochemistry of xenograft tumors; format: in vivo, mouse; details: treated xenograft tumors relative to un-treated tumors
Method: as §1, §2

[4] = test system: complement component 1, q subcomponent, receptor 1 (C1qR1); test: Immunohistochemistry of xenograft tumors; format: in vivo, mouse; details: treated xenograft tumors relative to un-treated tumors
Method: as §1, §2

Question: For Cc1cc2c(F)c(Oc3ncnn4cc(OC[C@@H](C)OC(=O)[C@H](C)N)c(C)c34)ccc2[nH]1 [example VEGFR-2 inhibitor, [(1R),2S]-2-Aminopropionic acid 2-[4-(4-fluoro-2-methyl-1H-indol-5-yloxy)-5-methylpyrrolo[2,1-f][1,2,4]triazin-6-yloxy]-1-methylethyl ester], which “fold-change mRNA, Tie1” value ([1]; mouse 430A probe 1416238_at, 100 mg/kg 1 qd×14 days, t-test P 0.00103262) is on record?
Answer: 11

Question: And the “fold-change mRNA, endoglin (Eng)” value ([1]; mouse 430A probe 1417271_a_at, 100 mg/kg 1 qd×14 days, t-test P 0.021873085)?
Answer: 2

Question: What about the “fold-change mRNA, Prg1” value ([1]; mouse 430A probe 1417426_at, 100 mg/kg 1 qd×14 days, t-test P 0.034821585) of the same molecule?
Answer: 2

Question: And the “fold-change mRNA, Eltd1” value ([1]; mouse 430A probe 1418059_at, 100 mg/kg 1 qd×14 days, t-test P 0.018655985)?
Answer: 2

Question: What about the “direction of change in mRNA levels, Tek” value ([1]; mouse 430A probe 1418788_at) of the same molecule?
Answer: no

Question: And the “fold-change mRNA, Tek” value ([1]; mouse 430A probe 1418788_at, 100 mg/kg 1 qd×14 days, t-test P 0.047098006)?
Answer: 1

Question: What about the “direction of change in mRNA levels, S100a8” value ([1]; mouse 430A probe 1419394_s_at) of the same molecule?
Answer: no

Question: And the “fold-change mRNA, S100a8” value ([1]; mouse 430A probe 1419394_s_at, 100 mg/kg 1 qd×14 days, t-test P 0.040857487)?
Answer: 1

Question: What about the “fold-change mRNA, C1qr1 (Ly68)” value ([1]; mouse 430A probe 1419589_at, 100 mg/kg 1 qd×14 days, t-test P 0.000005) of the same molecule?
Answer: 5

Question: And the “fold-change mRNA, Agtrl1” value ([1]; mouse 430A probe 1423037_at, 100 mg/kg 1 qd×14 days, t-test P 5.54812E−04)?
Answer: 4

Question: What about the “fold-change mRNA, nidogen 2 (Nid2)” value ([1]; mouse 430A probe 1423516_a_at, 100 mg/kg 1 qd×14 days, t-test P 0.024126268) of the same molecule?
Answer: 3

Question: And the “direction of change in mRNA levels, Col16a1” value ([1]; mouse 430A probe 1427986_a_at)?
Answer: no

Question: And the “fold-change mRNA, Col4a1” value ([1]; mouse 430A probe 1427986_a_at, 100 mg/kg 1 qd×14 days, t-test P 0.000014)?
Answer: 4

Question: And the “fold-change mRNA, Col16a1” value ([1]; mouse 430A probe 1427986_a_at, 100 mg/kg 1 qd×14 days, t-test P 0.014896833)?
Answer: 1

Question: What about the “fold-change mRNA, VE-Cadherin (Cdh5)” value ([1]; mouse 430A probe 1433956_at, 100 mg/kg 1 qd×14 days, t-test P 0.001154369) of the same molecule?
Answer: 2

Question: What about the “direction of change in mRNA levels, Pkig” value ([1]; mouse 430A probe 1434820_s_at) of the same molecule?
Answer: no

Question: And the “fold-change mRNA, Pkig” value ([1]; mouse 430A probe 1434820_s_at, 100 mg/kg 1 qd×14 days, t-test P 0.032286798)?
Answer: 1

Question: What about the “fold-change mRNA, Agtrl1” value ([1]; mouse 430A probe 1438651_a_at, 100 mg/kg 1 qd×14 days, t-test P 0.026038828) of the same molecule?
Answer: 2

Question: What about the “fold-change mRNA, Gng11” value ([1]; mouse 430A probe 1448942_at, 100 mg/kg 1 qd×14 days, t-test P 0.001326667) of the same molecule?
Answer: 2

Question: And the “direction of change in mRNA levels, Cav1” value ([1]; mouse 430A probe 1449145_a_at)?
Answer: no

Question: And the “fold-change mRNA, Cav1” value ([1]; mouse 430A probe 1449145_a_at, 100 mg/kg 1 qd×14 days, t-test P 2.72030E−04)?
Answer: 1

Question: What about the “direction of change in mRNA levels, Pde1a” value ([1]; mouse 430A probe 1449298_a_at) of the same molecule?
Answer: no

Question: And the “fold-change mRNA, Pde1a” value ([1]; mouse 430A probe 1449298_a_at, 100 mg/kg 1 qd×14 days, t-test P 0.025570996)?
Answer: 1

Question: And the “fold-change mRNA, Col4a1” value ([1]; mouse 430A probe 1452035_at, 100 mg/kg 1 qd×14 days, t-test P 0.000018)?
Answer: 6

Question: What about the “IHC staining of Collagen type IV (COL4A1) around tumor blood vessels following treatment” value [2] of the same molecule?
Answer: negative or lesser degree of staining

Question: And the “IHC staining of angiotensin receptor-like 1 (AGTRL1) around tumor blood vessels following treatment” value [3]?
Answer: negative or lesser degree of staining

Question: What about the “IHC staining of C1qR1 around tumor blood vessels following treatment” value [4] of the same molecule?
Answer: negative or lesser degree of staining
